# Legend:
# [1] = system: MOLM-13 cells (human acute myeloid leukemia cells); experiment: MOLM-13 Cellular Assay; format: cell-based; conditions: 72 hours exposure, cell viability by CellTiter-Glo
# Experimental: The following assay is referred to herein as the “MOLM-13 Cellular Assay.” MOLM-13 cells (human acute myeloid leukemia cells) were obtained from DSMZ and were maintained in RPMI 1640+Glutamax+25 mM HEPES (Invitrogen, catalog number 72400) supplemented with 10% heat inactivated fetal bovine serum (FBS; Invitrogen, catalog number 16140). The day prior to assay set-up, cells were pelleted, resuspended in fresh media, counted, and cells were plated at 0.4×10^6 cell/mL in a T150 flask. On the day of the assay, cells were pelleted, resuspend in fresh media, counted and seeded at 5,000 cells/well in white opaque 96-well tissue culture treated microplates (Perkin Elmer, catalog number 6005680). Cells were exposed to different concentrations of test compounds at 37° C., 5% CO2 for 72 hours immediately after seeding. Cell viability was acquired on a Perkin Elmer Envision 2104 multilabel reader using the CellTiter-Glo assay (Promega) according to the manufacturer's instructions.
# human DHODH = human DHODH (Homo sapiens (Human), UniProt Q02127); experiment: DHODH Enzymatic Assay; format: biochemical; conditions: purified human DHODH, DCIP absorbance, end-point mode; read-out: hDHODH IC50
# Experimental: The following assay is referred to herein as the “DHODH Enzymatic Assay.” To detect DHODH enzyme activities, dichloroindophenol (DCIP) is added as the final electron acceptor in the assay. DCIP can accept electrons from the reduced coenzyme Q generated in the assay, or from dihydroorotate (DHO) via FMN by binding presumably to the ubiquinone pocket. DCIP solutions are blue, with an intense absorbance around 600 nm, but becomes colorless upon reduction (J. Biol. Chem. (1986) 261, 11386). The assay buffer contained […], pH 7.5, 150 mM NaCl, 0.5 mM EDTA, and 0.1% Triton X-100 in MilliQ water. Substrate consisting of 20 mM DHO, 5 mM CoQ6, and 1 mM DCIP in assay buffer, initiates the reaction. The assay is run in end-point mode by quenching the reaction with the potent DHODH inhibitor brequinar. Absorbance measurements were obtained using the BMG Phera Star plate-reading spectrophotomer. Purified human DHODH was purchased from Proteros (cat. No. PR-0044). Chemicals were purchased from Sigma-Aldrich, Teknova, and Avanti Polar Lipids. Liquid handling was performed using Labcyte Echo and Formulatrix Tempest.
# human DHODH, sequence (Q02127 whole entry): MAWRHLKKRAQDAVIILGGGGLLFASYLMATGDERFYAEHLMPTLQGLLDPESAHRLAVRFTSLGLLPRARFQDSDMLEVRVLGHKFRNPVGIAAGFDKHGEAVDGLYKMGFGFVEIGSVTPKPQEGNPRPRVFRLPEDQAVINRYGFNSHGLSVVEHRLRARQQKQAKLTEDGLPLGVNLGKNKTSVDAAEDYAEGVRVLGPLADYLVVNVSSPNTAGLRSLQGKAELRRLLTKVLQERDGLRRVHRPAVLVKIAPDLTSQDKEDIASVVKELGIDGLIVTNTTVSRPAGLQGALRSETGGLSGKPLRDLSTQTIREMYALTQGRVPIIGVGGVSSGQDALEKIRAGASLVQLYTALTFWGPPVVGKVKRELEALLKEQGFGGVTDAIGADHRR
Structure (SMILES),IC50 [1] [nM],"IC50 ([1]; Homo sapiens, MOLM-13, 72 h) [nM]",IC50 (human DHODH) [nM]
"CCn1c(CO)nn(-c2cc3c(C(C)C)cn(-c4c(F)cccc4Cl)c(=O)c3cc2F)c1=O [Example 11, 2-(2-Chloro-6-fluorophenyl)-6-(4-ethyl-3-(hydroxymethyl)-5-oxo-4,5-dihydro-1H-1,2,4-triazol-1-yl)-7-fluoro-4-isopropylisoquinolin-1(2H)-one]",0.2,≤ 0.2,0.222
"C=C(C)c1cn(-c2ccccc2C(F)(F)F)c(=O)c2ccc(-n3nc(CO)n(CC)c3=O)cc12 [Example 12, 6-(4-Ethyl-3-(hydroxymethyl)-5-oxo-4,5-dihydro-1H-1,2,4-triazol-1-yl)-4-(prop-1-en-2-yl)-2-(2-(trifluoromethyl)phenyl)isoquinolin-1(2H)-one]",–,2,2.29
"C=C(C)c1cn(-c2ccccc2C#N)c(=O)c2ccc(-n3nc(CO)n(CC)c3=O)cc12 [Example 13, 2-(6-(4-Ethyl-3-(hydroxymethyl)-5-oxo-4,5-dihydro-1H-1,2,4-triazol-1-yl)-1-oxo-4-(prop-1-en-2-yl)isoquinolin-2(1H)-yl)benzonitrile]",–,6,5.49
"C=C(C)c1cn(-c2ccccc2Cl)c(=O)c2ccc(-n3nc(CO)n(CC)c3=O)cc12 [Example 14, 2-(2-Chlorophenyl)-6-(4-ethyl-3-(hydroxymethyl)-5-oxo-4,5-dihydro-1H-1,2,4-triazol-1-yl)-4-(prop-1-en-2-yl)isoquinolin-1(2H)-one]",–,0.4,0.724
"C=C(C)c1cn(-c2ccccc2C)c(=O)c2ccc(-n3nc(CO)n(CC)c3=O)cc12 [Example 15, 6-(4-Ethyl-3-(hydroxymethyl)-5-oxo-4,5-dihydro-1H-1,2,4-triazol-1-yl)-4-(prop-1-en-2-yl)-2-(o-tolyl)isoquinolin-1(2H)-one]",–,0.4,0.634
"CCn1c(CO)nn(-c2ccc3c(=O)n(-c4ccc([N+](=O)[O-])cc4F)cc(I)c3c2)c1=O [Example 16, 6-(4-Ethyl-3-(hydroxymethyl)-5-oxo-4,5-dihydro-1H-1,2,4-triazol-1-yl)-2-(2-fluoro-4-nitrophenyl)-4-iodoisoquinolin-1(2H)-one]",–,300,1180
"CCn1c(CO)nn(-c2ccc3c(=O)n(-c4ccccc4Cl)nc(C(C)C)c3c2)c1=O [Example 17, 2-(2-Chlorophenyl)-6-(4-ethyl-3-(hydroxymethyl)-5-oxo-4,5-dihydro-1H-1,2,4-triazol-1-yl)-4-isopropylphthalazin-1(2H)-one]",–,3,3.21
"CCn1c(CO)nn(-c2ccc3c(=O)n(-c4cccc(F)c4)nc(C(C)C)c3c2)c1=O [Example 18, 6-(4-Ethyl-3-(hydroxymethyl)-5-oxo-4,5-dihydro-1H-1,2,4-triazol-1-yl)-2-(3-fluorophenyl)-4-isopropylphthalazin-1(2H)-one]",–,30,80.7
"CCn1c(CO)nn(-c2ccc3c(=O)n(-c4c(F)cccc4Cl)nc(C(C)C)c3c2)c1=O [Example 19, 2-(2-Chloro-6-fluorophenyl)-6-(4-ethyl-3-(hydroxymethyl)-5-oxo-4,5-dihydro-1H-1,2,4-triazol-1-yl)-4-isopropylphthalazin-1(2H)-one]",–,4,4.96
"CCc1nn(-c2cccc(F)c2)c(=O)c2ccc(-n3nc(CO)n(CC)c3=O)cc12 [Example 20, 4-Ethyl-6-(4-ethyl-3-(hydroxymethyl)-5-oxo-4,5-dihydro-1H-1,2,4-triazol-1-yl)-2-(3-fluorophenyl)phthalazin-1(2H)-one]",–,100,83.5
"CCc1nn(-c2ccccc2C)c(=O)c2ccc(-n3nc(CO)n(CC)c3=O)cc12 [Example 21, 4-Ethyl-6-(4-ethyl-3-(hydroxymethyl)-5-oxo-4,5-dihydro-1H-1,2,4-triazol-1-yl)-2-(o-tolyl)phthalazin-1(2H)-one]",–,10,31.2
"CCn1c(CO)nn(-c2cc3c(C(C)C)cn(-c4ccccc4C)c(=O)c3cc2F)c1=O [Example 22, 6-(4-Ethyl-3-(hydroxymethyl)-5-oxo-4,5-dihydro-1H-1,2,4-triazol-1-yl)-7-fluoro-4-isopropyl-2-(o-tolyl)isoquinolin-1(2H)-one]",0.2,≤ 0.2,0.396
"CCn1c(CO)nn(-c2cc3c(C(C)C)cn(-c4c(C)ccnc4Cl)c(=O)c3cc2F)c1=O [Example 23, 2-(2-Chloro-4-methylpyridin-3-yl)-6-(4-ethyl-3-(hydroxymethyl)-5-oxo-4,5-dihydro-1H-1,2,4-triazol-1-yl)-7-fluoro-4-isopropylisoquinolin-1(2H)-one]",–,3,3.57
"CCn1c(CO)nn(-c2ccc3c(=O)n(-c4c(F)cccc4Cl)cc(C4(C)CC4)c3c2)c1=O [Example 24, 2-(2-Chloro-6-fluorophenyl)-6-(4-ethyl-3-(hydroxymethyl)-5-oxo-4,5-dihydro-1H-1,2,4-triazol-1-yl)-4-(1-methylcyclopropyl)isoquinolin-1(2H)-one]",–,1,1.65
"CCn1c(CO)nn(-c2ccc3c(=O)n(-c4ccccc4C)cc(N(C)C)c3c2)c1=O [Example 26, 4-(Dimethylamino)-6-(4-ethyl-3-(hydroxymethyl)-5-oxo-4,5-dihydro-1H-1,2,4-triazol-1-yl)-2-(o-tolyl)isoquinolin-1(2H)-one]",–,20,46.5
"CCn1c(CO)nn(-c2cc3c(C(C)C)cn(-c4c(C)n[nH]c4Cl)c(=O)c3cc2F)c1=O [Example 31, 2-(5-Chloro-3-methyl-1H-pyrazol-4-yl)-6-(4-ethyl-3-(hydroxymethyl)-5-oxo-4,5-dihydro-1H-1,2,4-triazol-1-yl)-7-fluoro-4-isopropylisoquinolin-1(2H)-one]",–,6,0.764
"C=C(C)c1cn(-c2ccccc2C)c(=O)c2cc(F)c(-n3nc(CO)n(CC)c3=O)nc12 [Example 32, 2-(4-Ethyl-3-(hydroxymethyl)-5-oxo-4,5-dihydro-1H-1,2,4-triazol-1-yl)-3-fluoro-8-(prop-1-en-2-yl)-6-(o-tolyl)-1,6-naphthyridin-5(6H)-one]",–,2,1.01
"CCn1c(CO)nn(-c2nc3c(C)nn(-c4ccccc4C)c(=O)c3cc2F)c1=O [Example 33, 2-(4-Ethyl-3-(hydroxymethyl)-5-oxo-4,5-dihydro-1H-1,2,4-triazol-1-yl)-3-fluoro-8-methyl-6-(o-tolyl)pyrido[2,3-d]pyridazin-5(6H)-one]",–,> 100,240
"CCn1c(CO)nn(-c2nc3c(C(C)C)nn(-c4ccccc4C)c(=O)c3cc2F)c1=O [Example 34, 2-(4-Ethyl-3-(hydroxymethyl)-5-oxo-4,5-dihydro-1H-1,2,4-triazol-1-yl)-3-fluoro-8-isopropyl-6-(o-tolyl)pyrido[2,3-d]pyridazin-5(6H)-one]",–,4,1.97
"C=C(C)c1cn(-c2c(F)cccc2Cl)c(=O)c2cc(F)c(-n3nc(CO)n(CC)c3=O)nc12 [Example 35, 6-(2-Chloro-6-fluorophenyl)-2-(4-ethyl-3-(hydroxymethyl)-5-oxo-4,5-dihydro-1H-1,2,4-triazol-1-yl)-3-fluoro-8-(prop-1-en-2-yl)-1,6-naphthyridin-5(6H)-one]",–,1,1.15
"CCn1c(CO)nn(-c2nc3c(C(C)C)cn(-c4c(F)cccc4Cl)c(=O)c3cc2F)c1=O [Example 36, 6-(2-Chloro-6-fluorophenyl)-2-(4-ethyl-3-(hydroxymethyl)-5-oxo-4,5-dihydro-1H-1,2,4-triazol-1-yl)-3-fluoro-8-isopropyl-1,6-naphthyridin-5(6H)-one]",–,0.4,0.356
"CCn1c(CO)nn(-c2nc3c([C@H](C)C(F)(F)F)cn(-c4ccccc4C)c(=O)c3cc2F)c1=O [Example 37, (S)-2-(4-Ethyl-3-(hydroxymethyl)-5-oxo-4,5-dihydro-1H-1,2,4-triazol-1-yl)-3-fluoro-6-(o-tolyl)-8-(1,1,1-trifluoropropan-2-yl)-1,6-naphthyridin-5(6H)-one]",–,3,1.88
"CCn1c(CO)nn(-c2nc3c([C@@H](C)C(F)(F)F)cn(-c4ccccc4C)c(=O)c3cc2F)c1=O [Example 38, (R)-2-(4-Ethyl-3-(hydroxymethyl)-5-oxo-4,5-dihydro-1H-1,2,4-triazol-1-yl)-3-fluoro-6-(o-tolyl)-8-(1,1,1-trifluoropropan-2-yl)-1,6-naphthyridin-5(6H)-one]",–,0.5,0.464
